Patent US20050113295A1, “Carboxamide and amino derivatives and methods of their use” (priority 2003, published 2005)
Where a SMILES comes first, the peptide text is derived from it. [ ]: non-standard residue; d: D form. Phe(4-CONH2) = NC(=O)c1ccc(C[C@H](N)C(=O)O)cc1

How the values were obtained:
[1] = biological target: T1, cloned human κ opioid receptor (Homo sapiens, UniProt P41145); assay: [3H]diprenorphine receptor binding, κ opioid receptor; conditions: δ over κ
T1 construct: expressed in transfected cells; host or cells: CHO cells
Description: (§1) The potencies of the compounds of the Examples were determined by testing the ability of a range of concentrations of each compound to inhibit the binding of the non-selective opioid antagonist, [^3H]diprenorphine, to the cloned human μ, κ, and δ opioid receptors, expressed in separate cell lines. IC50 values were obtained by nonlinear analysis of the data using GraphPad Prism version 3.00 for Windows (GraphPad Software, San Diego). Ki values were obtained by Cheng-Prusoff corrections of IC50 values.
(§2) The receptor binding method (DeHaven and DeHaven-Hudkins, 1998) was a modification of the method of Raynor et al. (1994). […] The filters were rinsed 4 times with 1 mL of cold 50 mM Tris HCl, pH 7.8 and radioactivity remaining on the filters determined by scintillation spectroscopy. Nonspecific binding was determined by the minimum values of the titration curves and was confirmed by separate assay wells containing 10 μM naloxone. Ki values were determined by Cheng-Prusoff corrections of IC50 values derived from nonlinear regression fits of 12 point titration curves using GraphPad Prism® version 3.00 for Windows (GraphPad Software, San Diego, Calif.).
(§3) To determine the equilibrium dissociation constant for the inhibitors (Ki), radioligand bound (cpm) in the presence of various concentrations of test compounds was measured. […]

[2] = biological target: T2, cloned human δ opioid receptor (Homo sapiens, UniProt P41143); assay: Receptor-mediated [35S]GTPγS binding, δ opioid receptor; assay type: biochemical
T2 construct: expressed in transfected cells; host or cells: CHO cells
Description: The potency and efficacy of compounds at each of the receptors are assessed by modifications of the methods of Selley et al., 1997 and Traynor and Nahorski, 1995 using receptor-mediated [^35S]GTPγS binding in the same membrane preparations used to measure receptor binding. Assays are carried out in 96-well FlashPlates® (Perkin Elmer Life Sciences, Inc, Boston, Mass.). Membranes prepared from CHO cells expressing the appropriate receptor (50-100 μg of protein) are added to assay mixtures containing agonist with or without antagonists, […] [^35S]GTPγS (approx. 100,000 dpm), 3.0 μM GDP, 75 mM NaCl, 15 mM MgCl2, 1.0 mM ethylene glycol-bis(β-aminoethyl ether)-N,N,N′,N′-tetracetic acid, 1.1 mM dithiothreitol, 10 μg/mL leupeptin, 10 μg/mL pepstatin A, 200 μg/mL bacitracin, and 0.5 μg/mL aprotinin in 50 mM Tris-HCl buffer, pH 7.8. After incubation at room temperature for one hour, the plates are sealed, centrifuged at 800×g in a swinging bucket rotor for 5 minutes and bound radioactivity determined with a TopCount microplate scintillation counter (Packard Instrument Co., Meriden, Conn.).
EC50 values for agonists are determined from nonlinear regression fits of 8- or 12-point titration curves to the 4-parameter equation for a sigmoidal dose-response with a slope factor of 1.0 using GraphPad Prism version 3.00 for Windows (GraphPad Software, San Diego, Calif.).

[3] = biological target: T2, cloned human δ opioid receptor; assay: [3H]diprenorphine receptor binding, δ opioid receptor
Description: as §1, §2, §3

[4] = biological target: T3, cloned human μ opioid receptor (Homo sapiens, UniProt P35372); assay: [3H]diprenorphine receptor binding, μ opioid receptor; conditions: δ over μ
T3 construct: expressed in transfected cells; host or cells: CHO cells
Description: as §1, §2, §3

T2 sequence (P41143 whole entry): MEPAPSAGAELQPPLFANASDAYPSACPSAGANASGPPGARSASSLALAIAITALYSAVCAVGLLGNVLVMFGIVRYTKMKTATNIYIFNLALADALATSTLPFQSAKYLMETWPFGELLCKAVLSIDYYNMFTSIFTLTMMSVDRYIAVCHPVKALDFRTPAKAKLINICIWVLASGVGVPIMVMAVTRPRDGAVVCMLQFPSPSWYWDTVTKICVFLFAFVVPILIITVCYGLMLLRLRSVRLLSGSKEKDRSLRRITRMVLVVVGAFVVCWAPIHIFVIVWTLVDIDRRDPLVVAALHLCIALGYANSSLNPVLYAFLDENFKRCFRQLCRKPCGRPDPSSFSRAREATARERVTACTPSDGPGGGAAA
T3 sequence (P35372 whole entry): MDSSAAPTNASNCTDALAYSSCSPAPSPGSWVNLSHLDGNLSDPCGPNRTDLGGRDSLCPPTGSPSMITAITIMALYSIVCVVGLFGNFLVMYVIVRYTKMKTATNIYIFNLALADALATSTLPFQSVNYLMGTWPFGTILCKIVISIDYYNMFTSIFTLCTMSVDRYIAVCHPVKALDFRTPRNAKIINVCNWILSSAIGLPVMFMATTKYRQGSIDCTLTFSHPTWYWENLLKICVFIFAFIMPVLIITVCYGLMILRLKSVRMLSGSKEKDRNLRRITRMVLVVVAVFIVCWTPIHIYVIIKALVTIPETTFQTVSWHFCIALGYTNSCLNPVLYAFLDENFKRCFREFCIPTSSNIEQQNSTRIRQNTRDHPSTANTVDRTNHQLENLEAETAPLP
T1 sequence (P41145 whole entry): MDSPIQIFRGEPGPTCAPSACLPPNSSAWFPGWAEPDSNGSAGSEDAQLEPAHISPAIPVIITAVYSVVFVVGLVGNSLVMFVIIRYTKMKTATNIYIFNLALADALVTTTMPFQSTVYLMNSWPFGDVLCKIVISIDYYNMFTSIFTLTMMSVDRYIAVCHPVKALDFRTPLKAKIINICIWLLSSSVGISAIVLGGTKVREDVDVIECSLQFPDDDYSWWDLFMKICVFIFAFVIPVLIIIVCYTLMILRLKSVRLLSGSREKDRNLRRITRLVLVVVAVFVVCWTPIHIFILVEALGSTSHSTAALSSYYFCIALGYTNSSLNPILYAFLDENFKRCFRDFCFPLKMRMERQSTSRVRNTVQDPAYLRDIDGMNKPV

CC(C)C[C@H](NC(=O)[C@H](Cc1ccccc1)NC(=O)CNC(=O)CNC(=O)[C@@H](N)Cc1ccc(C(N)=O)cc1)C(N)=O [Example 1, H-Cpa-Gly-Gly-Phe-Leu-NH2] (H-[Phe(4-CONH2)]GGFL-NH2)
selectivity versus the κ opioid receptor [1]: greater than 10 fold
EC50 [2]: 74 nM
Ki [3]: 7 nM
selectivity versus the μ opioid receptor [4]: greater than 10 fold
